Target: T1, mouse mincle (CLEC-4E) CRD, biotin-tagged (Mus musculus, UniProt Q9R0Q8)
T1 construct: gene Clec4e; minimal C-terminal carbohydrate-recognition domain (primers encode ACPLNWKHY... to ...PEISPLD) with C-terminal biotinylation tag GLNDIFEAQKIEWHE kept; immobilized on streptavidin wells
T1 sequence (Q9R0Q8 80-214): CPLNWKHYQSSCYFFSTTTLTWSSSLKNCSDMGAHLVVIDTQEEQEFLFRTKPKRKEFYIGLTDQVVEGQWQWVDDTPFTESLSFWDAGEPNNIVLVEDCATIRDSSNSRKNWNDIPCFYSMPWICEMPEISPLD
Assay: solid-phase competition with […]-Man-BSA reporter, CRD immobilized on streptavidin wells
Assay type: binding

Structure (SMILES): OC[C@H]1O[C@H](O[C@H]2O[C@H](CO)[C@@H](O)[C@H](O)[C@H]2O)[C@H](O)[C@@H](O)[C@@H]1O [trehalose]
- Ki: 540 ± 180 µM
